According to patent US20050004167A1, “Branched chain amino acid-dependent aminotransferase inhibitors and their use in the treatment of neurodegenerative diseases” (WARNER-LAMBERT COMPANY LLC, priority 2001, published 2005):
Values joined by “and” are separate entries in the source; they are usually repeats but may differ in a detail not shown here. Equal values may be shown once.

Experiments:
[1] = molecular target: T1, rat BCAT cytosolic form (Rattus norvegicus, UniProt P54690); assay: In vitro coupled enzyme assay (glutamate dehydrogenase, NADH formation), rat BCATc; assay type: biochemical; conditions: recombinant rat BCATc, 37° C., 25 mM phosphate buffer pH 7.8; several values in a cell = repeat determinations; read-out: RrBCATc
T1 construct: made in house; host or cells: E. coli BL21(DE3)
T1 sequence (P54690 1-411): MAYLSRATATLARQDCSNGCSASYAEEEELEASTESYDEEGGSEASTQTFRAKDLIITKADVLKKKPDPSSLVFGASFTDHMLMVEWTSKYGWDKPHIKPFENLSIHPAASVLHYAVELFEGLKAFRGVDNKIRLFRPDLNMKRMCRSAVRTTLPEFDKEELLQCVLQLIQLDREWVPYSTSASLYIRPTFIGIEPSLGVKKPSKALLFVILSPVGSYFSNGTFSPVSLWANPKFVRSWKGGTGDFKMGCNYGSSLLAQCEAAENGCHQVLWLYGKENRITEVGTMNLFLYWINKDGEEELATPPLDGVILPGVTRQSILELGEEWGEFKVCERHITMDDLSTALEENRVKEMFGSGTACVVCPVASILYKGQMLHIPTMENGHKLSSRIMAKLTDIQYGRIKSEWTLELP
Method in brief: (§1)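 At 37 °C in 25 mM phosphate pH 7.8 with 2 mM DTT, 1.25 μg His-tag-purified E. coli-expressed BCAT transaminated 750 μM L-leucine with 500 μM α-ketoglutarate and 10 μM PLP. Glutamate was coupled via glutamate dehydrogenase (1 mM NAD+, 4 mM ADP) to NADH formation at 340 nm. Compounds were added in DMSO up to 5% v/v.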

[2] = molecular target: T2, human Branched Chain Amino Acid Aminotransferase cytosolic form (hBCATc) (Homo sapiens, UniProt P54687); assay: In vitro coupled enzyme assay (glutamate dehydrogenase, NADH formation), human BCATc; assay type: biochemical; conditions: recombinant human BCATc, 37° C., 25 mM phosphate buffer pH 7.8; several values in a cell = repeat determinations; read-out: RhBCATc
T2 construct: made in house; host or cells: E. coli BL21(DE3)
T2 sequence (P54687 1-386): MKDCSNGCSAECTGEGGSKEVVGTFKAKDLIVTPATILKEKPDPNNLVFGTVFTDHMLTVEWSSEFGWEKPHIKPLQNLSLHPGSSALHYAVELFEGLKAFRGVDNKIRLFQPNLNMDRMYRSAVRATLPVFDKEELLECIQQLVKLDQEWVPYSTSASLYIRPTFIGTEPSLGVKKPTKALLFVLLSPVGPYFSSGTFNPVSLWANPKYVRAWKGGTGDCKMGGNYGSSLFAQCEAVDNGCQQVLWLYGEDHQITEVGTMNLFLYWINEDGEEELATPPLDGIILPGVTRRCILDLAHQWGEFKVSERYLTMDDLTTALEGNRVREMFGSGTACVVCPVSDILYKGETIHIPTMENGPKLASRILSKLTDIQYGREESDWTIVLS
Method in brief: as §1

## COc1cccc2cc(C(=O)NNS(=O)(=O)c3ccc(F)cc3)oc12 [Example 23, 2-Benzofurancarboxylic acid, 7-methoxy-, 2-[(4-fluoro-phenyl)sulfonyl]hydrazide]
other
  melting point: 182.7 to 183.3 °C
[1]
  IC50: 5400 nM
[2]
  IC50: 17.8 µM

## Cc1c(Cl)cccc1S(=O)(=O)NNC(=O)c1ccc2oc3ccccc3c2c1 [Example 19, Dibenzofuran-2-carboxylic acid 2-(3-chloro-2-methyl-phenylsulfonyl)hydrazide]
other
  melting point: 192 to 194 °C
[1]
  IC50: 220 nM
[2]
  IC50: 6.7 µM

## Cc1ccc(F)cc1S(=O)(=O)NNC(=O)c1cc2cc(Cl)ccc2o1 [Example 50, 2-Benzofurancarboxylic acid, 5-chloro-2-[(5-fluoro-2-methylphenyl)sulfonyl]-hydrazide]
other
  melting point: 209.6 to 211.2 °C
[1]
  IC50: 1300 nM
[2]
  IC50: 5.18 µM and 9.1 µM

## CCOc1c(C(=O)NNS(=O)(=O)c2ccccc2)oc2ccc(-c3ccccc3)cc12 [Example 66, 2-Benzofurancarboxylic acid, 3-ethoxy-5-phenyl-, 2-(phenylsulfonyl)hydrazide]
other
  melting point: 184.3 to 184.6 °C
[1]
  IC50: 150 nM
[2]
  IC50: 1.38 µM

## COc1cccc(S(=O)(=O)NNC(=O)c2ccc3oc4ccccc4c3c2)c1 [Example 39, 2-Dibenzofurancarboxylic acid 2-[(3-methoxyphenyl)sulfonyl]hydrazide]
other
  melting point: 199.5 to 200.5 °C
[1]
  IC50: 210 nM
[2]
  IC50: 2.29 µM

## COc1ccc2c(OC)c(C(=O)NNS(=O)(=O)c3ccccc3)oc2c1 [Example 59, 2-Benzofurancarboxylic acid, 3,6-dimethoxy-, 2-(phenylsulfonyl)hydrazide]
other
  melting point: 174.8 to 175.2 °C
[1]
  IC50: 120 nM
[2]
  IC50: 3.42 µM

## COc1cccc2cc(C(=O)NNS(=O)(=O)c3ccccc3)oc12 [Example 5, 7-Methoxy-2-benzofurancarboxylic acid 2-(phenylsulfonyl)hydrazide]
other
  melting point: 164 to 165 °C
[1]
  IC50: 860 nM and 460 nM and 530 nM
[2]
  IC50: 5.76 µM and 3 µM

## O=C(NNS(=O)(=O)c1ccccc1OC(F)(F)F)c1cnc2ccccc2c1 [Example 137, 3-Quinolinecarboxylic acid, 2-[(2-trifluoromethoxyphenyl)sulfonyl]hydrazide]
other
  melting point: 175.1 to 175.9 °C
[1]
  IC50: 14000 nM
[2]
  IC50: 41 µM

## O=C(NNS(=O)(=O)c1ccccc1)c1cc2cc(Cl)cc(Cl)c2o1 [Example 69, 2-Benzofurancarboxylic acid, 5,7-dichloro 2-(phenylsulfonyl)sulfonyl hydrazide]
other
  melting point: 216.4 to 218.1 °C
[1]
  IC50: 50 nM
[2]
  IC50: 3.86 µM

## O=C(NNS(=O)(=O)c1cc(Cl)cc(Cl)c1)c1cc2cc(Cl)ccc2o1 [Example 31, 2-Benzofurancarboxylic acid, 5-chloro-, 2-[(3,5-dichlorophenyl)sulfonyl]-hydrazide]
other
  melting point: 242.5 to 243.3 °C
[1]
  IC50: 810 nM
[2]
  IC50: 2.6 µM and 4.3 µM

## O=C(NNS(=O)(=O)c1ccccc1OC(F)(F)F)c1cc2cc(Cl)ccc2o1 [Example 52, 2-Benzofurancarboxylic acid, 5-chloro-2-[[2-(trifluoromethoxy)phenyl]sulfonyl]-hydrazide]
other
  melting point: 218.2 to 219.8 °C
[1]
  IC50: 300 nM
[2]
  IC50: 2.19 µM

## O=C(NNS(=O)(=O)c1cc(Cl)cc(Cl)c1)c1ccc2oc3ccccc3c2c1 [Example 18, Dibenzofuran-2-carboxylic acid 2-(3,5-dichlorophenylsulfonyl)hydrazide]
other
  melting point: 231 to 233 °C
[1]
  IC50: 530 nM and 400 nM
[2]
  IC50: 7.9 µM

## O=C(NNS(=O)(=O)c1cccc(Br)c1)c1cc2cc(Cl)ccc2o1 [Example 45, 2-Benzofurancarboxylic acid, 5-chloro-2-[(3-bromophenyl)sulfonyl]hydrazide]
other
  melting point: 218.1 to 220 °C
[1]
  IC50: 210 nM
[2]
  IC50: 2.29 µM

## O=C(NNS(=O)(=O)c1cccc(Cl)c1)c1cc2cc(Cl)cc(Cl)c2o1 [Example 75, 2-Benzofurancarboxylic acid, 5,7-dichloro 2-[(3-chlorophenyl)sulfonyl]-hydrazide]
other
  melting point: 245.6 to 245.7 °C
[1]
  IC50: 880 nM
[2]
  IC50: > 10 µM and 5.4 µM

## O=C(NNS(=O)(=O)c1ccccc1Cl)c1cc2cc(Cl)ccc2o1 [Example 42, 2-Benzofurancarboxylic acid, 5-chloro-2-[(2-chlorophenyl)sulfonyl]hydrazide]
other
  melting point: 200.3 to 200.5 °C
[1]
  IC50: 1300 nM
[2]
  IC50: 5.3 µM and 10.4 µM

## O=C(NNS(=O)(=O)c1ccc(F)cc1)c1ccc2oc3ccccc3c2c1 [Example 24, 2-Dibenzofurancarboxylic acid 2-[(4-fluorophenyl)sulfonyl]hydrazide]
other
  melting point: 206.3 to 207 °C
[1]
  IC50: 1200 nM
[2]
  IC50: 24 µM

## Cc1cccc(S(=O)(=O)NNC(=O)c2cc3cc(Cl)cc(Cl)c3o2)c1 [Example 72, 2-Benzofurancarboxylic acid, 5,7-dichloro 2-[(3-methylphenyl)sulfonyl]-hydrazide]
other
  melting point: 230.4 to 231.1 °C
[1]
  IC50: 1860 nM
[2]
  IC50: > 10 µM and 5.35 µM

## Cc1c(Cl)cccc1S(=O)(=O)NNC(=O)c1cc2cc(Cl)ccc2o1 [Example 49, 2-Benzofurancarboxylic acid, 5-chloro-2-[(3-chloro-2-methylphenyl)sulfonyl]-hydrazide]
other
  melting point: 198.2 to 198.5 °C
[1]
  IC50: 3100 nM and 4000 nM
[2]
  IC50: 1.75 µM and 3.6 µM

## O=C(NNS(=O)(=O)c1ccc(F)cc1Cl)c1ccc2oc3ccccc3c2c1 [Example 25, 2-Dibenzofurancarboxylic acid 2-[(2-chloro-4-fluorophenyl)sulfonyl]hydrazide]
other
  melting point: 227.5 to 227.8 °C
[1]
  IC50: 1800 nM
[2]
  IC50: 21.9 µM

## O=C(NNS(=O)(=O)c1cccc(F)c1)c1ccc2oc3ccccc3c2c1 [Example 35, 2-Dibenzofurancarboxylic acid 2-[(3-fluorophenyl)sulfonyl]hydrazide]
other
  melting point: 222.6 to 223.3 °C
[1]
  IC50: 310 nM
[2]
  IC50: 3.57 µM

## O=C(NNS(=O)(=O)c1ccccc1)c1ccc2[nH]c3c(c2c1)CCCC3 [Example 2, 2,3,4,9-Tetrahydro-1H-carbazole-6-carboxylic acid 2-(phenylsulfonyl)hydrazide]
other
  melting point: > 250 °C
[1]
  IC50: 130 nM
[2]
  IC50: 2.6 µM

## O=C(NNS(=O)(=O)c1ccccc1)c1ccc2c(c1)CCO2 [Example 149, 2,3-Dihydro-benzofuran-5-carboxylic acid 2-(phenylsulfonyl)hydrazide]
other
  melting point: 181 to 183 °C
[1]
  IC50: 3300 nM
[2]
  IC50: 17.9 µM

## O=C(NNS(=O)(=O)c1cc(C(F)(F)F)cc(C(F)(F)F)c1)c1ccc2oc3ccccc3c2c1 [Example 32, 2-Dibenzofurancarboxylic acid, 2-[[3,5-bis(trifluoromethyl)phenyl]sulfonyl]-hydrazide]
other
  melting point: 244.7 to 245.5 °C
[1]
  IC50: > 100000 nM
[2]
  IC50: > 100 µM

## O=C(NNS(=O)(=O)c1ccccc1C(F)(F)F)c1cc2cc(Cl)cc(Cl)c2o1 [Example 70]
other
  melting point: 245.6 to 247.6 °C
[1]
  IC50: 430 nM
[2]
  IC50: 11.6 µM
